In US20190106460A1, “BINDING INHIBITORS OF THE BETA. TRANSDUCIN REPEAT-CONTAINING PROTEIN” (priority 2011, published 2019):
Non-standard residues stand in square brackets, D forms with d. Residues, ends and D or L forms follow the SMILES beside them. Groups on a side chain read outwards from the residue. *: point of attachment. X3 = CC(C)CCC[C@@H](C)[C@H]1CCC2C3CC=C4C[C@@H](OC(=O)*)CC[C@]4(C)C3CC[C@@]21C; Benzenesulfonyl(4-OMe) = COc1ccc(S(=O)(=O)*)cc1; Phe(3-F) = N[C@@H](Cc1cccc(F)c1)C(=O)O; Ahx = NCCCCCC(=O)O

System: PNT-1 cell line
Experiment: xCELLigence cell growth, non-malignant PNT-1
Format: cell-based
Experimental: xCELLigence Method • Before starting the experiment add 50 μL of medium (RPMI 1640, 10% fetal bovine serum, 100 units/mL penicillin, 100 ug/mL streptomycin, and 2 mmol/L glutamine, all from GIBCO) to each well of 96 well E-plate (Roche) and place the plate in the xCELLigence platform to measure the background. • LNCaP/PNT-1 cells are seeded (LNCaPs 80000 cells/well; PNT1 3000 cells/well) in the plate in complete medium and equilibrated for 60 mins at RT before returning to the xCELLigence platform and incubating at 37° C./5% CO2. • 24 hrs after seeding, remove 100 μL of medium was removed from each well and cells were treated with compounds or DMSO diluted in 100 μL of OptiMEM (GIBCO). • Replace the plate in the xCELLigence platform • Cells growth can then be monitored in real-time by the cell index profile on the xCELLigence readout screen • Cell growth can be expressed as normalized cell index and doubling time/slope calculated using the RTCA software.
The susceptibility of cancer cell lines versus non-cancer cell lines following treatment with the compounds was also investigated.

Q: Which “cell growth, xCELLigence” value does the source give for COc1ccc(S(=O)(=O)N[C@H](CC(=O)O)C(=O)N[C@@H](CCC(=O)O)C(=O)NCC(=O)N[C@@H](Cc2cccc(F)c2)C(=O)N[C@@H](Cc2c[nH]c3ccccc23)C(=O)N[C@@H](CCC(=O)O)C(=O)NCCCCCC(=O)N[C@@H](CCCCNC(=O)CCCCCNC(=O)O[C@H]2CC[C@@]3(C)C(=CCC4C3CC[C@@]3(C)C4CC[C@@H]3[C@H](C)CCCC(C)C)C2)C(N)=O)cc1 (stereo partly shown) [UBP036, 4-(MeO)PhSO2-dEGF(3F)WE-Ahx-K(Ahx-Chol)-NH2] ({Benzenesulfonyl(4-OMe)}-[dD]EG[Phe(3-F)]WE[Ahx]K([Ahx-X3])-NH2) here?
A: The value was “far less effect”.
